Values of other authors in patent US9011938B2, “Methods and formulations for treating chronic liver disease” (priority 2008, dated 2015).
Structures can show the parent of a compound that is named as a salt.

What was measured:
[1] = system: mice induced with an immunological liver injury
[2] = system: rats with fatty liver induced by a high-fat diet
[3] = system: tumor necrosis factor-alpha (TNF-α); conditions: subjects suffering from alcoholic hepatitis
[4] = system: HCV internal ribosome entry site (IRES); conditions: in vitro, dose-dependant, not competitive binding

C[C@@]12C[C@@]3(O)O[C@@H](O1)[C@]1(COC(=O)c4ccccc4)[C@H]3C[C@@]12O[C@@H]1O[C@H](CO)[C@@H](O)[C@H](O)[C@H]1O [paeoniflorin]
increase in TNF-alpha, lipopolysaccharide binding protein, and CD14 mRNA expression in mouse liver [1]: significantly decreased | serum ALT activities [1]: significantly decrease

COc1ccc2cc3[n+](cc2c1OC)CCc1cc2c(cc1-3)OCO2 [berberine hydrochloride]
hepatic fat degeneration [2]: attenuates

N[C@@H](CCC(=O)N[C@@H](CS)C(=O)NCC(=O)O)C(=O)O [glutathione, Glutathione]
TNF-α activity [3]: inhibits

cyanocobalamin [vitamin B12]
HCV IRES-dependent translation of a reporter gene [4]: inhibit
